Test [1] concerns the target T1, human MC4R (Homo sapiens, UniProt P32245).
T1 construct: expressed in transfected cells
The test can be described thus: 125NDP-α-MSH competitive binding to membranes of BHK cells expressing human MC4 receptor (filtration assay). The procedure:
In Vitro ^125NDP-α-MSH Binding to Recombinant BHK Cells Expressing Human MC4 Receptor (Filtration Assay)
In order to assess the binding affinity of the selected compounds for the human MC4R competitive binding assays was performed with radiolabeled NDP-alpha MSH (^125NDP-α-MSH).
The assay was performed in 96-well filterplates (Unifilter) using BHK cells stably expressing the human MC4 receptor.
The BHK cell membranes were prepared from frozen or fresh cells that were homogenized in 20 mM HEPES pH 7.1, 5 mM MgCl2, 1 mg/ml bacitracin (buffer 1) and centrifuged at 15000 rpm at 4° C., 10 min in a Sorvall RC 5B plus, SS-34 rotor. The supernatant was discarded, and the pellets were re-suspended in buffer 1, homogenized and centrifuged two more times. The final pellets were re-suspended in buffer 1 and the protein concentration was measured and adjusted with buffer 1 to 5 mg/ml and the membrane preparation was kept at −80° C. until assay. The assay was run on a dilution of this cell membrane suspension without any further preparation. The suspension was diluted to give maximally 10% specific binding, i.e. to approx. 50-100 fold dilution, optimized after each membrane preparation. The assay was performed in a total volume of 200 μl: 50 μl of cell suspension, 50 μl of ^125NDP-α-MSH (apx. […] in final concentration), 50 μl of test compound and 50 μl binding buffer were mixed and incubated for 2 h at 25° C. (binding buffer: 25 mM HEPES, pH 7.0, 1 mM CaCl2), 1 mM MgSO4, 1 mM EGTA, 0.005% Tween™ 20 and 0.1% HSA or, alternatively, 0.1% ovalbumin (Sigma; catalogue No. A-5503)). Test compounds were dissolved in 100% DMSO and diluted in binding buffer in a dose range from 1 μM to 0.001 nM. Radiolabelled ligand and membranes were diluted in binding buffer. The incubation was stopped by dilution with 8×100 μl ice-cold 0.9% NaCl. The radioactivity retained on the filters was counted using a Packard Topcounter. The data were analysed by non-linear regression analysis of binding curves, using the Windows™ program GraphPad™ Prism (GraphPad Software, USA).

In test [2] the target is T1, human MC4R. The test can be described thus: Functional cAMP assay (CisBio HTRF) in BHK cells expressing human MC4R. The test is classed as cell-based. The following applies: for MC1R/MC4R cAMP EC50 ratio: MC1R cAMP EC50 divided by MC4R cAMP EC50. A digest of the protocol:
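Compound working solutions, 10-fold dilutions from 2 μM at twice final strength, in buffer containing 1 mM IBMX, were incubated 30 min at 25 °C with BHK cells stably carrying human MC4R or MC1R. Accumulated cAMP was then detected by competitive HTRF after 1 h at 25 °C and fitted by non-linear regression.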

The mark [3] stands for this setting: human MC4R, BHK cell membranes, 125NDP-α-MSH radioligand, read-out: MC4R binding Ki.
The mark [4] stands for this setting: BHK cells expressing human MC4R, '>' = highest dose used with no response, read-out: MC4R cAMP EC50.

Consider eleven molecules from patent US20200223889A1, “Bicyclic Compounds Capable of Binding to Melanocortin 4 Receptor” (Novo Nordisk A/S, priority 2017, published 2020).

SMILES strings stand for the structures. Where two headings read alike, the source gives them in different places. Starred links: 1 amine or outer side, 2 acyl side, 3 side chain; linkers in the order of their positions; H or OH if unused. Positions of bridges follow the written chain, without caps; N, C: chain ends. Non-standard residues stand in square brackets, D forms with d. Residues, ends and D or L forms follow the SMILES beside them. Phe(3,4-(OMe)2) = COc1ccc(C[C@H](N)C(=O)O)cc1OC; Hyp = O=C(O)[C@@H]1C[C@@H](O)CN1; Cit = NC(=O)NCCC[C@H](N)C(=O)O; Agp = N=C(N)NC[C@H](N)C(=O)O; d(hCys) = N[C@H](CCS)C(=O)O; Api = NC1(C(=O)O)CCNCC1; Ac4c = NC1(C(=O)O)CCC1; X1 = C(CN[*:2])CS[*:1]; Aib = CC(C)(N)C(=O)O; CH2 = C([*:1])[*:2]

T1 sequence (P32245 whole entry): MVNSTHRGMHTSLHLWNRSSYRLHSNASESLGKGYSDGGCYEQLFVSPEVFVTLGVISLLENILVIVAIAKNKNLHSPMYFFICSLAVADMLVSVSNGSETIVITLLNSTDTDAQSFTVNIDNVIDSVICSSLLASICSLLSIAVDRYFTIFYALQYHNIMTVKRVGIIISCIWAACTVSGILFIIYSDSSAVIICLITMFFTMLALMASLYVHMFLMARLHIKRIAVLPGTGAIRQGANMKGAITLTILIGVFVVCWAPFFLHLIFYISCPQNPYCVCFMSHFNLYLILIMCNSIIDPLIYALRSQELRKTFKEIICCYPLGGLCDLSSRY

For `C[C@@H]1NC(=O)[C@@H]2CSSC[C@H](NC(=O)[C@H](CCCNC(=N)N)NC(=O)[C@H](CCCCN)NC(=O)[C@H](CCCCN)NC(=O)[C@H](CCCCN)NC1=O)C(=O)N1CCC[C@H]1C(=O)N[C@@H](Cc1c[nH]cn1)C(=O)N[C@H](Cc1ccccc1)C(=O)N[C@@H](CCCNC(N)=O)C(=O)N[C@@H](Cc1c[nH]c3ccccc13)C(=O)N2` [Chem. 72, c[c[Cys-Pro-His-D-Phe-Cit-Trp-Cys]- Ala-Lys-Lys-Lys-Arg]] (cyclo(AKKKRCPH[dF][Cit]WC); disulfide 6-12), on human MC4R [1] (setting [3]), the Ki came to 0.03 nM. For the same molecule, at human MC4R [2] (setting [4]), the EC50 stood at 0.03 nM. Moreover, the “MC1R/MC4R cAMP EC50 ratio” value at human MC4R [2] is listed as 195.
Consider `N=C(N)NCCC[C@@H]1NC(=O)[C@@H](Cc2ccccc2)NC(=O)[C@H](Cc2c[nH]cn2)NC(=O)C2(CCNCC2)NC(=O)[C@@H]2CSSC[C@H](NC(=O)[C@H](Cc3c[nH]c4ccccc34)NC1=O)C(=O)NC1(CCNCC1)C(=O)N[C@@H](Cc1c[nH]cn1)C(=O)N[C@H](Cc1ccccc1)C(=O)N[C@@H](CCCNC(=N)N)C(=O)N[C@@H](Cc1c[nH]c3ccccc13)C(=O)N2` [Chem. 47, c[c[Cys-ACP-His-D-Phe-Arg-Trp- Cys]-ACP-His-D-Phe-Arg-Trp]] (cyclo([Api]H[dF]RWC[Api]H[dF]RWC); disulfide 6-12), for which the Ki at human MC4R [1] amounted to 0.72 nM. On human MC4R [2], a half-maximal response (EC50) required 0.12 nM and the “MC1R/MC4R cAMP EC50 ratio” value is on record as 23.
`N=C(N)NCCC[C@@H]1NC(=O)[C@@H](Cc2ccccc2)NC(=O)[C@H](Cc2c[nH]cn2)NC(=O)C2(CCC2)NC(=O)[C@@H]2CSSC[C@H](NC(=O)[C@H](Cc3c[nH]c4ccccc34)NC1=O)C(=O)NC1(CCC1)C(=O)N[C@@H](Cc1c[nH]cn1)C(=O)N[C@H](Cc1ccccc1)C(=O)N[C@@H](CCCNC(=N)N)C(=O)N[C@@H](Cc1c[nH]c3ccccc13)C(=O)N2` [Chem. 20, c[c[Cys-ACBC-His-D-Phe-Arg-Trp- Cys]-ACBC-His-D-Phe-Arg-Trp]] (cyclo([Ac4c]H[dF]RWC[Ac4c]H[dF]RWC); disulfide 6-12): the affinity on human MC4R [1], expressed as Ki, was 0.15 nM. At human MC4R [2], the EC50 was found to be 0.04 nM and the “MC1R/MC4R cAMP EC50 ratio” value turned out to be 124.
Consider `C[C@@H]1NC(=O)[C@@H]2CSSC[C@H](NC(=O)[C@H](Cc3c[nH]c4ccccc34)NC(=O)[C@H](CCCNC(N)=O)NC(=O)[C@@H](Cc3ccccc3)NC(=O)[C@H](Cc3c[nH]cn3)NC1=O)C(=O)N[C@@H](C)C(=O)N[C@@H](CCCCN)C(=O)N[C@@H](CCCCN)C(=O)N[C@@H](CCCCN)C(=O)N[C@@H](Cc1c[nH]c3ccccc13)C(=O)N2` [Chem. 48, c[c[Cys-Ala-His-D-Phe-Cit-Trp-Cys]- Ala-Lys-Lys-Lys-Trp]] (cyclo(AH[dF][Cit]WCAKKKWC); disulfide 6-12), for which the Ki on human MC4R [1] (setting [3]) is 0.15 nM. Further, the EC50 at human MC4R [2] (setting [4]) was found to be 0.06 nM. Besides, the “MC1R/MC4R cAMP EC50 ratio” value on human MC4R [2] was found to be 152.
In the case of `COc1ccc(C[C@@H]2NC(=O)[C@H](CCCNC(=N)N)NC(=O)[C@@H](Cc3ccccc3)NC(=O)[C@H](Cc3c[nH]cn3)NC(=O)[C@@H]3CCCN3C(=O)[C@@H]3CSSC[C@H](NC2=O)C(=O)N[C@@H](C)C(=O)N[C@@H](CCCCN)C(=O)N[C@@H](CCCCN)C(=O)N[C@@H](CCCCN)C(=O)N[C@@H](CCCNC(=N)N)C(=O)N3)cc1OC` [Chem. 94, c[c[Cys-Pro-His-D-Phe-Arg-3,4- DiMeO-Phe-Cys]-Ala-Lys-Lys-Lys- Arg]] (cyclo(AKKKRCPH[dF]R[Phe(3,4-(OMe)2)]C); disulfide 6-12), on human MC4R [1] (setting [3]), the inhibition constant Ki was 0.25 nM. Further, the “MC1R/MC4R cAMP EC50 ratio” value on human MC4R [2] is 26.
In the case of `C[C@@H]1NC(=O)[C@@H]2CSSC[C@H](NC(=O)[C@H](CCCNC(=N)N)NC(=O)[C@H](CCCCN)NC(=O)[C@H](CCCCN)NC(=O)[C@H](CCCCN)NC1=O)C(=O)N[C@@H](CCCCN)C(=O)N[C@@H](Cc1c[nH]cn1)C(=O)N[C@H](Cc1ccccc1)C(=O)N[C@@H](Cc1c[nH]cn1)C(=O)N[C@@H](Cc1c[nH]c3ccccc13)C(=O)N2` [Chem. 78, c[c[Cys-Lys-His-D-Phe-His-Trp-Cys]- Ala-Lys-Lys-Lys-Arg]] (cyclo(AKKKRCKH[dF]HWC); disulfide 6-12), the Ki on human MC4R [1] (setting [3]) worked out at 0.02 nM. Moreover, the EC50 at human MC4R [2] (setting [4]) was 0.04 nM. Moreover, the “MC1R/MC4R cAMP EC50 ratio” value at human MC4R [2] is 95.
In the case of `CC1(C)NC(=O)[C@@H]2CSSC[C@H](NC(=O)[C@H](Cc3c[nH]c4ccccc34)NC(=O)[C@H](CNC(=N)N)NC(=O)[C@@H](Cc3ccccc3)NC(=O)[C@H](Cc3c[nH]cn3)NC1=O)C(=O)NC(C)(C)C(=O)N[C@@H](Cc1c[nH]cn1)C(=O)N[C@H](Cc1ccccc1)C(=O)N[C@@H](CNC(=N)N)C(=O)N[C@@H](Cc1c[nH]c3ccccc13)C(=O)N2` [Chem. 43, c[c[Cys-Aib-His-D-Phe-AGP-Trp- Cys]-Aib-His-D-Phe-AGP-Trp]] (cyclo([Agp]WC[Aib]H[dF][Agp]WC[Aib]H[dF]); disulfide 3-9), the Ki at human MC4R [1] (setting [3]) is 2.61 nM. The EC50 at human MC4R [2] (setting [4]) came out at 0.44 nM. Moreover, the “MC1R/MC4R cAMP EC50 ratio” value on human MC4R [2] came to 107.
Taken in the same sequence, the figures for `CC(=O)N[C@@H](Cc1c[nH]cn1)C(=O)N[C@H](Cc1ccccc1)C(=O)N[C@@H](CCCNC(=N)N)C(=O)N[C@@H](Cc1c[nH]c2ccccc12)C(=O)N[C@H](C)C(=O)N[C@@H]1CCSSCCCNC(=O)[C@@H](C)NC(=O)[C@H](Cc2c[nH]c3ccccc23)NC(=O)[C@H](CCCNC(=N)N)NC(=O)[C@@H](Cc2ccccc2)NC(=O)[C@H](Cc2c[nH]cn2)NC1=O` [Chem. 6, c[c[Cys-His-D-Phe-Arg-Trp-D-Ala- Cys]-His-D-Phe-Arg-Trp-D-Ala]] (Ac-H[dF]RW[dA][d(hCys)]H[dF]RW[dA]; linker 6-C via X1) were 0.19 nM, 0.06 nM and 39.
Take `N=C(N)NCCC[C@@H]1NC(=O)[C@@H](Cc2ccccc2)NC(=O)[C@@H]2C[C@@H](O)CN2C(=O)[C@@H]2CSCSC[C@H](NC(=O)[C@H](Cc3c[nH]c4ccccc34)NC1=O)C(=O)N1C[C@H](O)C[C@H]1C(=O)N[C@H](Cc1ccccc1)C(=O)N[C@@H](CCCNC(=N)N)C(=O)N[C@@H](Cc1c[nH]c3ccccc13)C(=O)N2` [Chem. 26, c[c[Cys-Hyp-D-Phe-Arg-Trp-Cys]- Hyp-D-Phe-Arg-Trp]] (cyclo(C[Hyp][dF]RWC[Hyp][dF]RW); linker 1-6 via CH2): the Ki on human MC4R [1] (setting [3]) was determined as 0.44 nM. Besides, the “MC1R/MC4R cAMP EC50 ratio” value on human MC4R [2] amounted to 96.
Regarding `C[C@@H]1NC(=O)[C@@H]2CSSC[C@H](NC(=O)[C@H](Cc3c[nH]c4ccccc34)NC(=O)[C@H](CCCCN)NC(=O)[C@@H](Cc3ccccc3)NC(=O)[C@H](Cc3c[nH]cn3)NC1=O)C(=O)N[C@@H](C)C(=O)N[C@@H](Cc1c[nH]cn1)C(=O)N[C@H](Cc1ccccc1)C(=O)N[C@@H](CCCCN)C(=O)N[C@@H](Cc1c[nH]c3ccccc13)C(=O)N2` [Chem. 15, c[c[Cys-Ala-His-D-Phe-Lys-Trp-Cys]- Ala-His-D-Phe-Lys-Trp]] (cyclo(AH[dF]KWCAH[dF]KWC); disulfide 6-12), on human MC4R [1] (setting [3]), the Ki came out at 0.12 nM. The EC50 on human MC4R [2] (setting [4]) is 0.09 nM. Further, the “MC1R/MC4R cAMP EC50 ratio” value at human MC4R [2] is 60.
For the molecule `NCCCC[C@@H]1NC(=O)[C@H](CCCCN)NC(=O)[C@@H]2CSSC[C@H](NC(=O)[C@H](Cc3c[nH]c4ccccc34)NC(=O)[C@H](CCCCN)NC(=O)[C@H](CCCCN)NC1=O)C(=O)N1CCC[C@H]1C(=O)N[C@@H](Cc1c[nH]cn1)C(=O)N[C@H](Cc1ccccc1)C(=O)N[C@@H](Cc1c[nH]cn1)C(=O)N[C@@H](Cc1c[nH]c3ccccc13)C(=O)N2` [Chem. 75, c[c[Cys-Pro-His-D-Phe-His-Trp-Cys]- Lys-Lys-Lys-Lys-Trp]] (cyclo(CKKKKWCPH[dF]HW); disulfide 1-7), the Ki on human MC4R [1] (setting [3]) is 0.11 nM. Besides, at human MC4R [2] (setting [4]), the EC50 turned out to be 0.44 nM. In addition, the “MC1R/MC4R cAMP EC50 ratio” value on human MC4R [2] was determined as 155.

A word on the Ki: it is the equilibrium dissociation constant of an inhibitor or competing ligand from its target. What is called EC50 is the concentration at which the effect is half-maximal.
